The assay concerns the target human F508del-CFTR (Homo sapiens, UniProt P13569, DEL508-508). Nature of the assay: F508del-CFTR cell surface expression (corrector activity), DiscoveRx ß-galactosidase complementation chemiluminescence assay in recombinant U2OS cell line.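 On all read-outs here: U2OS cells co-expressing ProLink-tagged F508del-CFTR and a membrane-anchored enzyme acceptor, where more surface CFTR restores β-galactosidase activity measured by chemiluminescence.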 To be noted: U2OS cells, 16h compound incubation; for pEC50: EC50, F508del-CFTR cell surface expression, geomean of several measurements; for Emax: U2OS, in relation to the Emax of the corrector lumacaftor (=100%), arithmetic mean.

pEC50: −log10 of the molar value.

Chain of human F508del-CFTR (P13569 with tags, fused parts or gaps DEL508-508): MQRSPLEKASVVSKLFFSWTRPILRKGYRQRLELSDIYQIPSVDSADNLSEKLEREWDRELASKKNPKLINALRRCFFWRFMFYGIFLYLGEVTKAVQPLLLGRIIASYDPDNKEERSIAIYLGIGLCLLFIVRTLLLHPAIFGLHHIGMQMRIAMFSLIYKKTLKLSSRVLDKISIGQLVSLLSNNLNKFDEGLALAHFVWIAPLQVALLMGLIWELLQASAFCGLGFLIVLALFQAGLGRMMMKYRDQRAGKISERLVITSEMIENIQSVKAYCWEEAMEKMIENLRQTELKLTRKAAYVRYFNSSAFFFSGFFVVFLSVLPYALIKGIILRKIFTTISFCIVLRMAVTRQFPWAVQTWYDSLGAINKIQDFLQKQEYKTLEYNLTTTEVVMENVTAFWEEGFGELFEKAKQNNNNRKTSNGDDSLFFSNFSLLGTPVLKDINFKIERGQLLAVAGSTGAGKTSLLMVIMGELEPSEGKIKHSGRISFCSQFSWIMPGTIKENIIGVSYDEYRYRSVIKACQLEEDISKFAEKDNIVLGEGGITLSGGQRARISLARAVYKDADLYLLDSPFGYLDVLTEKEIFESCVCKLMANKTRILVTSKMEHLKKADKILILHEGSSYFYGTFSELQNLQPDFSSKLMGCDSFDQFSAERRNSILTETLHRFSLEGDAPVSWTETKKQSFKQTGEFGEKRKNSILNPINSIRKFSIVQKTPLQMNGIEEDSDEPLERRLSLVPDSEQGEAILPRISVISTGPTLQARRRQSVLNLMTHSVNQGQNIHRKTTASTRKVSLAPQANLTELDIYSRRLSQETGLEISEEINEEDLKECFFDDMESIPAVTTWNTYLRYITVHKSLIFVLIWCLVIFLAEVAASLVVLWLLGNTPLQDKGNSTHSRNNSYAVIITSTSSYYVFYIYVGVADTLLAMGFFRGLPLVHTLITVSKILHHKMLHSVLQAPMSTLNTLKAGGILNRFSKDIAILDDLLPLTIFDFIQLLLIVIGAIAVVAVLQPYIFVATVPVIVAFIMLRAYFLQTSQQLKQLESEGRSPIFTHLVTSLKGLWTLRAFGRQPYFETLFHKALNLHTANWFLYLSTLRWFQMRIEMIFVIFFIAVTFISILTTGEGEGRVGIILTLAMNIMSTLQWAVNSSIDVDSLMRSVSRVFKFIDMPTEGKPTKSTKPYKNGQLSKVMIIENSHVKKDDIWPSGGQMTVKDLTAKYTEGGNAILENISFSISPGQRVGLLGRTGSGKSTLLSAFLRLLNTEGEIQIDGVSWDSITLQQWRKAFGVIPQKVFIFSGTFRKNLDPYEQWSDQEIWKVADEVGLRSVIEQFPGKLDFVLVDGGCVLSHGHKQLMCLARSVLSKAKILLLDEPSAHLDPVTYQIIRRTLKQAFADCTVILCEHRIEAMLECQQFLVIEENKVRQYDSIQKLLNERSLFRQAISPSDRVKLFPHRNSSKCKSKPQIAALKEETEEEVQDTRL

For orientation: pEC50 means the negative decadic logarithm of the EC50, by convention in mol/L. As usually defined, the Emax is the size of the effect at its maximum, as opposed to the concentration needed. With `CC(C)C[C@H]1C(=O)N(C)[C@@H](CC(F)F)C(=O)N[C@H](Cc2ccccc2)COc2ccc3ncc(F)cc3c2C(=O)N[C@H](C(=O)NCCc2noc(C3CC3)n2)CC(=O)N1C` [Example 802, (3S,7S,10S,13R)-13-benzyl-N-(2-(5-cyclopropyl-1,2,4-oxadiazol-3-yl)ethyl)-10-(2,2-difluoroethyl)-20-fluoro-7-isobutyl-6,9-dimethyl-1,5,8,11-tetraoxo-1,2,3,4,5,6,7,8,9,10,11,12,13,14-tetradecahydro-[1]oxa[4,7,10,14]tetraazacycloheptadecino[16,17-f]quinoline-3-carboxamide], the negative-log EC50 (pEC50) is 6.14 and the Emax stood at 200%.
The corresponding values for `CC[C@@H]1C(=O)N[C@H](Cc2ccccc2)COc2ccc3ncc(F)cc3c2C(=O)N[C@H](C(=O)NCCc2noc(C3CC3)n2)CC(=O)N(C)[C@@H](CC(C)C)C(=O)N1C` [Example 803, (3S,7S,10R,13R)-13-benzyl-N-(2-(5-cyclopropyl-1,2,4-oxadiazol-3-yl)ethyl)-10-ethyl-20-fluoro-7-isobutyl-6,9-dimethyl-1,5,8,11-tetraoxo-1,2,3,4,5,6,7,8,9,10,11,12,13,14-tetradecahydro-[1]oxa[4,7,10,14]tetraazacycloheptadecino[16,17-f]quinoline-3-carboxamide] are 6.61 and 355%.
The matching figures for `CC(C)C[C@H]1C(=O)N(C)[C@H](Cc2nc(-c3ccc(F)cn3)no2)C(=O)N[C@H](Cc2ccccc2)COc2ccc3ncc(F)cc3c2C(=O)N[C@H](C(=O)NCCn2nnc(C3CC3)n2)CC(=O)N1C` [Example 804, (3S,7S,10R,13R)-13-benzyl-N-(2-(5-cyclopropyl-2H-tetrazol-2-yl)ethyl)-20-fluoro-10-((3-(5-fluoropyridin-2-yl)-1,2,4-oxadiazol-5-yl)methyl)-7-isobutyl-6,9-dimethyl-1,5,8,11-tetraoxo-1,2,3,4,5,6,7,8,9,10,11,12,13,14-tetradecahydro-[1]oxa[4,7,10,14]tetraazacycloheptadecino[16,17-f]quinoline-3-carboxamide]: 6.94 and 360%.
The corresponding values for `CC(C)C[C@H]1C(=O)N2CCCC[C@@H]2C(=O)N[C@H](Cc2ccccc2)COc2ccc3ncc(F)cc3c2C(=O)N[C@H](C(=O)NCCc2cnn(C3CC3)n2)CC(=O)N1C` [Example 805, (9S,13S,19aR,22R)-22-benzyl-N-(2-(2-cyclopropyl-2H-1,2,3-triazol-4-yl)ethyl)-5-fluoro-13-isobutyl-12-methyl-7,11,14,20-tetraoxo-7,8,9,10,11,12,13,14,17,18,19,19a,20,21,22,23-hexadecahydro-16H-pyrido[2′,1′:6,7][1]oxa[4,7,10,14]tetraazacycloheptadecino[16,17-f]quinoline-9-carboxamide] are 6.72 and 276%.
For the compound `COc1nc(C)cc2c1C(=O)N[C@H](C(=O)NCCn1nnc(C3CC3)n1)CC(=O)N(C)[C@@H](CC(C)C)C(=O)N(C)[C@H](CC(F)(F)F)C(=O)N[C@H](Cc1ccccc1)CO2` [Example 806, (3R,6R,9S,13S)-3-benzyl-N-(2-(5-cyclopropyl-2H-tetrazol-2-yl)ethyl)-9-isobutyl-16-methoxy-7,10,18-trimethyl-5,8,11,15-tetraoxo-6-(2,2,2-trifluoroethyl)-2,3,4,5,6,7,8,9,10,11,12,13,14,15-tetradecahydropyrido[3,4-p][1]oxa[4,7,10,14]tetraazacycloheptadecine-13-carboxamide], the pEC50 was 6.63 and the maximal effect (Emax) is 394%.
The corresponding values for `Cc1cc(CCNC(=O)[C@@H]2CC(=O)N(C)[C@@H](CC(C)C)C(=O)N(C)[C@H](Cc3nc(-c4ccc(F)cn4)no3)C(=O)N[C@H](Cc3ccccc3)COc3ccc4ncc(F)cc4c3C(=O)N2)on1` [Example 807, (3S,7S,10R,13R)-13-benzyl-20-fluoro-10-((3-(5-fluoropyridin-2-yl)-1,2,4-oxadiazol-5-yl)methyl)-7-isobutyl-6,9-dimethyl-N-(2-(3-methylisoxazol-5-yl)ethyl)-1,5,8,11-tetraoxo-1,2,3,4,5,6,7,8,9,10,11,12,13,14-tetradecahydro-[1]oxa[4,7,10,14]tetraazacycloheptadecino[16,17-f]quinoline-3-carboxamide] are 6.69 and 358%.
For `CC(C)C[C@H]1C(=O)N(C)[C@H](Cc2nc(-c3ccc(F)cn3)no2)C(=O)N[C@H](Cc2ccccc2)COc2ccc3ncc(F)cc3c2C(=O)N[C@H](C(=O)NCCc2nc(C3CC3)no2)CC(=O)N1C` [Example 808, (3S,7S,10R,13R)-13-benzyl-N-(2-(3-cyclopropyl-1,2,4-oxadiazol-5-yl)ethyl)-20-fluoro-10-((3-(5-fluoropyridin-2-yl)-1,2,4-oxadiazol-5-yl)methyl)-7-isobutyl-6,9-dimethyl-1,5,8,11-tetraoxo-1,2,3,4,5,6,7,8,9,10,11,12,13,14-tetradecahydro-[1]oxa[4,7,10,14]tetraazacycloheptadecino[16,17-f]quinoline-3-carboxamide], the negative logarithm of the EC50 (pEC50) is 6.94 and the maximal response (Emax) turned out to be 399%.
As to `COc1cc(CCNC(=O)[C@@H]2CC(=O)N(C)[C@@H](CC(C)C)C(=O)N(C)[C@H](Cc3nc(C(F)(F)F)no3)C(=O)N[C@H](Cc3ccccc3)COc3cnc4ccc(F)cc4c3C(=O)N2)on1` [Example 809, (3S,7S,10R,13R)-13-benzyl-20-fluoro-7-isobutyl-N-(2-(3-methoxyisoxazol-5-yl)ethyl)-6,9-dimethyl-1,5,8,11-tetraoxo-10-((3-(trifluoromethyl)-1,2,4-oxadiazol-5-yl)methyl)-1,2,3,4,5,6,7,8,9,10,11,12,13,14-tetradecahydro-[1]oxa[4,7,10,14]tetraazacycloheptadecino[17,16-c]quinoline-3-carboxamide], the negative logarithm of the EC50 (pEC50) is 8.00 and the maximal effect (Emax) is 391%.
The corresponding values for `COc1cc(CCNC(=O)[C@@H]2CC(=O)N(C)[C@@H](CC(C)C)C(=O)N(C)[C@@H](Cc3nc(C(F)(F)F)no3)C(=O)N[C@H](Cc3ccccc3)COc3cnc4ccc(F)cc4c3C(=O)N2)on1` [Example 810, (3S,7S,10S,13R)-13-benzyl-20-fluoro-7-isobutyl-N-(2-(3-methoxyisoxazol-5-yl)ethyl)-6,9-dimethyl-1,5,8,11-tetraoxo-10-((3-(trifluoromethyl)-1,2,4-oxadiazol-5-yl)methyl)-1,2,3,4,5,6,7,8,9,10,11,12,13,14-tetradecahydro-[1]oxa[4,7,10,14]tetraazacycloheptadecino[17,16-c]quinoline-3-carboxamide] are 6.79 and 285%.
`CC(C)C[C@H]1C(=O)N(C)[C@H](Cc2nc(C(F)(F)F)no2)C(=O)N[C@H](Cc2ccccc2)COc2cnc3ccc(F)cc3c2C(=O)N[C@H](C(=O)NCCc2noc(C3CC3)n2)CC(=O)N1C` [Example 811, (3S,7S,10R,13R)-13-benzyl-N-(2-(5-cyclopropyl-1,2,4-oxadiazol-3-yl)ethyl)-20-fluoro-7-isobutyl-6,9-dimethyl-1,5,8,11-tetraoxo-10-((3-(trifluoromethyl)-1,2,4-oxadiazol-5-yl)methyl)-1,2,3,4,5,6,7,8,9,10,11,12,13,14-tetradecahydro-[1]oxa[4,7,10,14]tetraazacycloheptadecino[17,16-c]quinoline-3-carboxamide]: the negative logarithm of the EC50 (pEC50) is 7.72 and the maximum response (Emax) was 333%.

These data come from patent publication US20240208992A1, “MACROCYCLES AS CFTR MODULATORS” (Idorsia Pharmaceuticals Ltd, priority 2021, published 2024).
